Results from BindingDB's records for doi:10.1016/j.bmcl.2006.07.074 (Boehringer Ingelheim Pharmaceuticals, 2006).

Target: DNA-directed RNA polymerase II (Bos taurus)
Test: Inhibition of calf thymus DNA dependent RNA polymerase 2

Q: Which IC50 does the source give for `O=C(O)c1ccc2c(C3CCCCC3)c(-c3ccoc3)[nH]c2c1` [3-cyclohexyl-2-(furan-3-yl)-1H-indole-6-carboxylic acid] here?
A: > 125 µM
